Tests used:
[1] = Hygroscopicity by dynamic vapor sorption (DVS); assay type: physicochemical
Experimental: Hygroscopicity was evaluated by using a dynamic vapor sorption instrument (DVI). The experiment was performed under controlled temperature conditions with temperature set at 25° C. Following a drying step at 40° C. for 60 minutes, samples were subjected to water vapor starting from 5% relative humidity with stepwise increase up to 95% relative humidity in 5% increments. The desorption experiment was performed under the same conditions with a stepwise decrease in relative humidity. Maximum equilibrium time was held as 180 minutes with equilibrium criteria as 0.005 weight % in 5 min.

[2] = Single oral dose pharmacokinetic study in male rats; assay type: in vivo; conditions: male rats (n=4 per group), suspension in 4% hydroxypropyl methylcellulose, nominal dose 100 mg/kg, FIG. 5
Experimental: (FIG. 5). […] To generate the data shown in FIG. 5, a single oral dose pharmacokinetic study was conducted as a two-way parallel design in male rats (n=4 per group). For each form a suspension was prepared in 4% hydroxypropyl methylcellulose with nominal dose as 100 mg/kg.

Row | SMILES | crystalline form by PXRD after the vapor sorption analysis ([1]; after sorption/desorption between 5% and 95% relative humidity) | moisture uptake ([1]; ambient temperature, 95% relative humidity, DVS measurement) | hygroscopicity according to the European Pharmacopeia classification ([1]; dynamic vapor sorption, 25° C.) | mean plasma concentration-time profile [2]
1 | CN1C(=N)N[C@](C)(c2cc(NC(=O)c3ccc(F)cn3)ccc2F)CS1(=O)=O [Crystalline Anhydrous Form 1] | retain the identical Crystalline Anhydrous Form 1 | 0.04 weight % | non-hygroscopic | essentially identical to that of the corresponding amorphous HCl salt form
2 | CN1C(N)=NC(C)(c2cc(NC(=O)c3ccc(F)cn3)ccc2F)CS1(=O)=O.Cl (centres unmarked) [amorphous HCl salt form] |  |  |  | excellent
